Among the data in patent US11072596B2, “Poly(ADP-ribose) polymerase inhibitor, preparation method and use” (SELECTION BIOSCIENCE LLC, priority 2017, dated 2021) are IC50 values, retold here.

Where two headings read alike, the source gives them in different places.

One assay deals with T1, CYP3A4 (Homo sapiens, UniProt P08684).
T1 construct: from tissue; host or cells: human liver microsomes (HLM)
The assay can be described thus: Inhibition of human liver microsomal CYP450 enzymes, CYP3A4. The following applies: human liver microsomes, Reference = ketoconazole. Type of assay: in vitro ADME.

The next assay addresses T2, PARP1 (Homo sapiens, UniProt P09874).
T2 construct: purchased BPS 80580
Nature of the assay: PARP1 Colorimetric Assay (PARP-1 kinase inhibitory activity). The following applies: PARP1 colorimetric assay kit, 1 hour at room temperature; read-out: PARP1 (in vitro enzymatic inhibitory activity, IC50). Type of assay: biochemical. Here is the method: PARP1 kinase activity was tested by the following method:
PARP1 Colorimetric Assay Kit (BPS, Cat #80580)
1. PARP1 Colorimetric Assay
2) 50 μL of diluted coating solution was added to each well for overnight at 4° C.
4) 200 μL of blocking buffer was added to each well and incubated at room temperature for 90 minutes.
1) A reaction solution was prepared in a ratio of […] 2.5 μL 10×PARP buffer+2.5 μL 10×PARP Assay mixture+5 μL Activated DNA+15 μL deionized water per well, and 25 μL of the reaction solution was added to each well (see Table 1).
4) 100 μL of colorimetric HRP substrate was added to each well and reacted at room temperature for 20 minutes.
5) 100 μL of 2 M H2SO4 was added to each well and OD 450 nm was read on a microplate reader.

T1 sequence (P08684 whole entry): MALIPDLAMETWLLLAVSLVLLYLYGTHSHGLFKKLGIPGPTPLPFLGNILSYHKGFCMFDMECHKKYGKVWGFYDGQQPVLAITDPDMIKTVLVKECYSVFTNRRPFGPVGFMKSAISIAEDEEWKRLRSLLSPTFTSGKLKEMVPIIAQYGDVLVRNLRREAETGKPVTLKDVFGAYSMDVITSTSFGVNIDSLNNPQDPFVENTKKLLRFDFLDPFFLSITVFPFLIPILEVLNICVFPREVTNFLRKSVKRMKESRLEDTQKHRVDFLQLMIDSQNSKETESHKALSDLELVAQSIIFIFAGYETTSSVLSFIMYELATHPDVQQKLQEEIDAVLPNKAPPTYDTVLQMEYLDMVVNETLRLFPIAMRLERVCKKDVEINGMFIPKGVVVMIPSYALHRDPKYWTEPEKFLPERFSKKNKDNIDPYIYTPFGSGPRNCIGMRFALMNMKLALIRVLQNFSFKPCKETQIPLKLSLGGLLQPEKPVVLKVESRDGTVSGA
T2 sequence (P09874 whole entry): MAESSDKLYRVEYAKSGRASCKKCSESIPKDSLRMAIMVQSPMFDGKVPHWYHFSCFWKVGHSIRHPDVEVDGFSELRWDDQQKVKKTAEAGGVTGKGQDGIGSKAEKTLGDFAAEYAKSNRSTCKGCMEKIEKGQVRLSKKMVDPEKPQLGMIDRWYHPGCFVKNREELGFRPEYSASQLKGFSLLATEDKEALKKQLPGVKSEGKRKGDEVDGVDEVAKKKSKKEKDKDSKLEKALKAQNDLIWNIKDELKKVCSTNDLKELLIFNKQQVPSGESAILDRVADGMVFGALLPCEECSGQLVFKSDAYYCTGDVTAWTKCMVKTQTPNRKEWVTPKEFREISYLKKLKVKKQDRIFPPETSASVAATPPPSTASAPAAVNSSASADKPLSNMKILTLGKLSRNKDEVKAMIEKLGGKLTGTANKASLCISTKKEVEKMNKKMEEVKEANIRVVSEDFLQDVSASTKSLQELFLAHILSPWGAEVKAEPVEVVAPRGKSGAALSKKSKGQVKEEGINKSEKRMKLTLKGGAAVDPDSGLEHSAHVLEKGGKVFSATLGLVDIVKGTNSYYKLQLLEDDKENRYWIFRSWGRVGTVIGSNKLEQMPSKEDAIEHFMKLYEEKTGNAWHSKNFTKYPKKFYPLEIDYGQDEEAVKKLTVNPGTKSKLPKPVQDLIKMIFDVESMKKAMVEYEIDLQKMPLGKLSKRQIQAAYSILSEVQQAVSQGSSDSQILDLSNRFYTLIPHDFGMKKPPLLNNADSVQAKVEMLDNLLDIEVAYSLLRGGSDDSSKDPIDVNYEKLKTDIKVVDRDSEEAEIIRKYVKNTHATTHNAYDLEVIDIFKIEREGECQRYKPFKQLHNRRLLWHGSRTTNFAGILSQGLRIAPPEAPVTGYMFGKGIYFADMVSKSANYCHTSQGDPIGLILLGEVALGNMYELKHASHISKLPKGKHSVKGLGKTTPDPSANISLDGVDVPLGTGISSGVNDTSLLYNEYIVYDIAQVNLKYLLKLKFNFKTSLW
Protocol for CYP3A4: The inhibitory effects of the compound of the present disclosure on the CYP450 enzymes of six human subtypes were determined by the following experimental method:
Substrate concentration: CYP1A2: Phenacetin at 30 μM; CYP2C9: Diclofenac at 10 μM; CYP2C19: S-Mephenytoin at 35 μM; CYP3A4: Midazolam at 5 μM and Testosterone at 80 μM; CYP2D6: Bufuralol at 10 μM.
0.2 mg/mL of HLM was added to the test wells, 400 μL per well, and then the gradient diluted 400× test compound was added to the corresponding wells.
0.2 mg/mL of HLM was added to the test wells, 200 μL per well, and then the gradient-diluted reference inhibitor was added to the corresponding wells. Steps 6 and 7 needed to be performed on ice.
30 μL of test compound and reference compound were mixed in 0.2 mg/mL of HLM solution (see steps 6 and 7).
15 μL of 4× substrate solution (see step 4) was added.
Preheated 8 mM of NADPH solution was added to the 96-well test plate (see step 3) to initiate the reaction, 15 μL per well.
The test plate was incubated at 37° C.: 3A4 for 5 minutes, each of 1A2, 2C9 and 2D6 for 10 minutes, and 2C19 for 45 minutes.
ACN containing internal reference was added to stop the reaction, 120 μL per well.
50 μL of supernatant from each well was transferred to a 96-well sample plate containing 50 μL of ultrapure water (Millipore, ZMQS50F01) for LC/MS analysis. […]

What is called IC50 is the point on the concentration scale where inhibition reaches its midpoint. In the case of `NC(=O)c1cccc2cn(-c3ccc([C@]4(F)CCCNC4)cc3)nc12` (single isomer, unassigned) [Example 23, (R or S)-2-(4-(3-fluoropiperidin-3-yl)phenyl)-2H-indazole-7-carboxamide], the IC50 is more than 10 µM on CYP3A4 (substrate Midazolam 5 μM, read-out: IC50 3A4 (Midazolam)); more than 10 µM on CYP3A4 (substrate Testosterone 80 μM, read-out: IC50 3A4 (Testosterone)); less than 0.1 µM at PARP1.
